Earlier results in patent publication US20240050950A1, “GRADIENT-BASED MICROFLUIDIC CIRCUIT, DEVICE, AND METHOD FOR PERFORMING AN ASSAY” (priority 2020, published 2024).
Where a name gives a salt, the structure may show the parent alone. Read-outs that look alike come from different tables or passages of the source. Bridge positions count the residues as written; N and C are the ends. Square brackets hold non-standard residues; d marks the D form. Peptide text beside a SMILES is read from it. * marks the point of attachment. Ileψ(thiazoline)Cys = CC[C@H](C)[C@H](N)C1=N[C@H](C(=O)*)CS1; Phe(ol) = N[C@H](CO)Cc1ccccc1; dOrn = NCCC[C@@H](N)C(=O)O; Aib = CC(C)(N)C(=O)O

Conditions: cited from earlier work
[1] = Table 1, antimicrobial agents/drugs

Row | Structure (SMILES) | Molar volume [1] [cm^3] | Molar volume (Table 2, anticancer drugs) [cm^3] | further results
1 | CC(=O)NC(C)(C)C(=O)N1CCC[C@H]1C(=O)NC(C)(C)C(=O)N[C@@H](C)C(=O)NC(C)(C)C(=O)N[C@@H](C)C(=O)N[C@@H](CCC(N)=O)C(=O)NC(C)(C)C(=O)N[C@H](C(=O)NC(C)(C)C(=O)NCC(=O)N[C@@H](CC(C)C)C(=O)NC(C)(C)C(=O)N1CCC[C@H]1C(=O)N[C@H](C(=O)NC(C)(C)C(=O)NC(C)(C)C(=O)N[C@@H](CCC(=O)O)C(=O)N[C@@H](CCC(N)=O)C(=O)N[C@H](CO)Cc1ccccc1)C(C)C)C(C)C [Alamethicin] (Ac-[Aib]P[Aib]A[Aib]AQ[Aib]V[Aib]GL[Aib]PV[Aib][Aib]EQ[Phe(ol)]) | 1583.4 ± 3.0 |  | 
2 | CC(C)Cn1cnc2c(N)nc3ccccc3c21 [Aldara (Imiquimod), Imiquimod] |  | 187.7 ± 7.0 | 
3 | Nc1nc2[nH]cc(CCc3ccc(C(=O)N[C@@H](CCC(=O)O)C(=O)O)cc3)c2c(=O)[nH]1 [Alimta (Pemetrexed Disodium), Pemetrexed Disodium] |  | 268.0 ± 7.0 | 
4 | COc1c(OCCCN2CCOCC2)ccc2c1N=C(NC(=O)c1cnc(N)nc1)N1CCN=C21 [Aliqopa (Copanlisib Hydrochloride), Copanlisib Hydrochloride] |  | 317.6 ± 7.0 | 
5 | O=C1c2cccc3c2[C@H](CCC3)CN1[C@@H]1CN2CCC1CC2 [Aloxi (Palonosetron Hydrochloride), Palonosetron Hydrochloride] |  | 238.6 ± 5.0 | 
6 | CC(C)C[C@@H](N)[C@H](O)C(=O)N[C@H](C(=O)N[C@H](C(=O)N[C@@H](CC(=O)O)C(=O)O)C(C)C)C(C)C [Amastatin] | 386.4 ± 3.0 |  | 
7 | NCCCNCCSP(=O)(O)O [Amifostine] |  | 156.6 ± 3.0 | 
8 | NCC[C@H](O)C(=O)N[C@@H]1C[C@H](N)[C@@H](O[C@H]2O[C@H](CN)[C@@H](O)[C@H](O)[C@H]2O)[C@H](O)[C@H]1O[C@H]1O[C@H](CO)[C@@H](O)[C@H](N)[C@H]1O [Amikacin] | 363.9 ± 5.0 |  | 
9 | CC1(C)S[C@@H]2[C@H](NC(=O)[C@H](N)c3ccc(O)cc3)C(=O)N2[C@H]1C(=O)O [Amoxicillin] | 236.2 ± 5.0 |  | 
10 | C[C@@H]1[C@H](O)[C@@H](C)/C=C/C=C/C=C/C=C/C=C/C=C/C=C/[C@H](O[C@@H]2O[C@H](C)[C@@H](O)[C@H](N)[C@@H]2O)C[C@@H]2O[C@](O)(C[C@@H](O)C[C@@H](O)[C@H](O)CC[C@@H](O)C[C@@H](O)CC(=O)O[C@H]1C)C[C@H](O)[C@H]2C(=O)O [Amphotericin B (Fungizone), Amphotericin B] | 689.4 ± 5.0 |  | 
11 | CC(C)(C#N)c1cc(Cn2cncn2)cc(C(C)(C)C#N)c1 [Anastrozole] |  | 270.2 ± 7.0 | 
12 | CC[C@H]1OC(=O)[C@H](C)[C@@H](O[C@H]2C[C@@](C)(OC)[C@@H](O)[C@H](C)O2)[C@H](C)[C@@H](O[C@@H]2O[C@H](C)C[C@H](N(C)C)[C@H]2O)[C@@]2(C)C[C@@H](C)[C@@]3(O[C@@]1(C)[C@H](O)[C@H]3C)O2 [Anhydroerythromycin A] | 590.7 ± 5.0 |  | 
13 | COc1ccc(C[C@H]2NC[C@H](O)[C@H]2OC(C)=O)cc1 [Anisomycin (or, Flagecidin), Anisomycin] | 218.6 ± 5.0 |  | 
14 | CNC(=O)c1ccc(N2C(=S)N(c3cnc(C#N)c(C(F)(F)F)c3)C(=O)C23CCC3)cc1F [Apalutamide] |  | 300.1 ± 5.0 | 
15 | C[C@@]1(CO)[C@H](O)CC[C@@]2(C)[C@H]1CC[C@H]1C[C@@H]3C[C@@]12CC[C@]3(O)CO [Aphidicolin] | 275.9 ± 5.0 |  | 
16 | COC[C@@H](C[C@H]1O[C@@](O)([C@H](O)[C@@H]2C[C@H](OC)[C@@H](O)CC/C=C(C)/C=C/[C@@H](O[C@@H]3O[C@@H](C)[C@H](OC)[C@@H](O)[C@@H]3O)[C@H](C)/C=C(C)/C=C(C)/C=C(\C)C(=O)O2)[C@H](C)[C@@H](O)[C@H]1C)OC1C[C@](C)(O)[C@@H](O[C@H]2C[C@@H](OC)[C@H](O)[C@@H](C)O2)[C@H](C)O1 (some centres unmarked) [Apoptolidin (FU 40A), Apoptolidin] | 898.5 ± 5.0 |  | 
17 | CN[C@@H]1[C@@H](O[C@H]2O[C@H](CO)[C@@H](N)[C@H](O)[C@H]2O)OC2C[C@@H](N)[C@@H](O[C@H]3[C@H](O)[C@@H](O)[C@H](N)C[C@@H]3N)OC2[C@@H]1O (some centres unmarked) [Apramycin (Nebramycin II), Apramycin] | 344.4 ± 5.0 |  | 
18 | C[C@@H](O[C@H]1OCCN(Cc2n[nH]c(=O)[nH]2)[C@H]1c1ccc(F)cc1)c1cc(C(F)(F)F)cc(C(F)(F)F)c1 [Aprepitant] |  | 353.5 ± 7.0 | 
19 | C=C1C[C@@H]2[C@H](CC[C@]3(C)C(=O)CC[C@@H]23)[C@@]2(C)C=CC(=O)C=C12 [Aromasin (Exemestane), Exemestane] |  | 260.5 ± 5.0 | 
20 | COc1nc(N)nc2c1ncn2[C@@H]1O[C@H](CO)[C@@H](O)[C@@H]1O [Arranon (Nelarabine), Nelarabine] |  | 149.8 ± 7.0 | 
21 | CC(/C=C/[C@@]1(C)[C@H](C)CCC(=O)[C@@H]1C)=C\Cc1c(O)c(Cl)c(C)c(C=O)c1O [Ascochlorin (Ilicicolin D, NSC 287492), Ascochlorin] | 337.6 ± 3.0 |  | 
22 | CC[C@@H]1/C=C(\C)C[C@H](C)C[C@H](OC)[C@H]2O[C@@](O)(C(=O)C(=O)N3CCCC[C@H]3C(=O)O[C@H](/C(C)=C/[C@@H]3CC[C@@H](O)[C@H](OC)C3)[C@H](C)[C@@H](O)CC1=O)[C@H](C)C[C@@H]2OC [Ascomycin (KD4185000), Ascomycin] | 661.8 ± 5.0 |  | 

Row | Structure (SMILES) | Molar volume [1] [cm^3] | Molar volume (Table 2, anticancer drugs) [cm^3] | further results
23 | N=C(N)NCc1cccc([131I])c1 [Azedra] |  | 148.6 ± 7.0 | 
24 | CC[C@H]1OC(=O)[C@H](C)[C@@H](O[C@H]2C[C@@](C)(OC)[C@@H](O)[C@H](C)O2)[C@H](C)[C@@H](O[C@@H]2O[C@H](C)C[C@H](N(C)C)[C@H]2O)[C@](C)(O)C[C@@H](C)CN(C)[C@H](C)[C@@H](O)[C@]1(C)O [Azithromycin] | 632.6 ± 5.0 |  | 
25 | CC[C@H](C)[C@H](N)C1=N[C@H](C(=O)N[C@@H](CC(C)C)C(=O)N[C@H](CCC(=O)O)C(=O)N[C@H](C(=O)N[C@H]2CCCCNC(=O)[C@H](CC(N)=O)NC(=O)[C@@H](CC(=O)O)NC(=O)[C@H](Cc3cnc[nH]3)NC(=O)[C@@H](Cc3ccccc3)NC(=O)[C@H]([C@@H](C)CC)NC(=O)[C@@H](CCCN)NC2=O)[C@@H](C)CC)CS1 [Bacitracin] ({Ileψ(thiazoline)Cys}-L[dE]IK[dOrn]I[dF]H[dD]N; lactam 4-C) | 994.4 ± 7.0 |  | 
26 | CO/C1=C\C(C)=C\[C@@H](C)[C@@H](O)[C@@H](C)C/C(C)=C/C=C/[C@H](OC)[C@@H]([C@@H](C)[C@@H](O)[C@H](C)[C@@]2(O)C[C@@H](O)[C@H](C)[C@@H](C(C)C)O2)OC1=O [Bafilomycin A1 (4730700), Bafilomycin A1] | 552.3 ± 5.0 |  | 
27 | CO/C1=C\C(C)=C\[C@@H](C)[C@@H](O)[C@@H](C)C/C(C)=C/C=C/[C@H](OC)[C@@H]([C@@H](C)[C@@H](O)[C@H](C)[C@@]2(O)C[C@@H](OC(=O)/C=C/C(=O)NC3=C(O)CCC3=O)[C@H](C)[C@@H](C(C)C)O2)OC1=O [Bafilomycin B1] | 667.1 ± 5.0 |  | 
28 | O=C(/C=C/c1cccc(S(=O)(=O)Nc2ccccc2)c1)NO [Beleodaq (Belinostat), Belinostat] |  | 222.9 ± 3.0 | 
29 | CC(C)C[C@H](NC(=O)[C@@H](O)[C@H](N)Cc1ccccc1)C(=O)O [Bestatin (Ubenimex), Bestatin] | 257.5 ± 3.0 |  | 
30 | C=C(c1ccc(C(=O)O)cc1)c1cc2c(cc1C)C(C)(C)CCC2(C)C [Bexarotene (Targretin), Bexarotene] |  | 334.2 ± 3.0 | 
31 | Cn1cnc2c(F)c(Nc3ccc(Br)cc3F)c(C(=O)NOCCO)cc21 [Binimetinib] |  | 264.1 ± 7.0 | 
32 | Oc1c(Cl)cc(Cl)cc1Sc1cc(Cl)cc(Cl)c1O [Bithionol] | 202.7 ± 5.0 |  | 
33 | CN(CC[C@H](N)CC(=O)N[C@H]1C=C[C@H](n2ccc(N)nc2=O)O[C@@H]1C(=O)O)C(=N)N [Blasticidine (Blasticidin S), Blasticidin S] | 261.9 ± 7.0 |  | 
34 | C[C@@H]1C[C@H](C)C[C@H](C)[C@@H](O)CC(=O)O[C@H]([C@@H]2CCC[C@H]2C(=O)O)C/C=C/C=C(/C#N)[C@H](O)[C@@H](C)C1 [Borrelidin] | 426.5 ± 5.0 |  | 
35 | CC(C)C[C@H](NC(=O)[C@H](Cc1ccccc1)NC(=O)c1cnccn1)B(O)O [Bortezomib (Velcade), Bortezomib] |  | 316.5 ± 3.0 | 
36 | COC(=O)N[C@@H](C)CNc1nccc(-c2cn(C(C)C)nc2-c2cc(Cl)cc(NS(C)(=O)=O)c2F)n1 [Braftovi (Encorafenib), Encorafenib] |  | 371.6 ± 7.0 | 
37 | C[C@H]1CCC/C=C/[C@@H]2C[C@H](O)C[C@H]2[C@H](O)/C=C/C(=O)O1 [Brefeldin A] | 252.9 ± 3.0 |  | 
38 | CS(=O)(=O)OCCCCOS(C)(=O)=O [Busulfan] |  | 182.3 ± 3.0 | 
39 | CO[C@H]1C(=O)[C@]2(C)[C@@H](OC)C[C@H]3OC[C@@]3(OC(C)=O)[C@H]2[C@H](OC(=O)c2ccccc2)[C@]2(O)C[C@H](OC(=O)[C@H](O)[C@@H](NC(=O)OC(C)(C)C)c3ccccc3)C(C)=C1C2(C)C [Cabazitaxel] |  | 635.1 ± 5.0 | 
40 | COc1cc(/C=N/O)nc(-c2ccccn2)c1 [Caerulomycin A] | 185.8 ± 7.0 |  | 
41 | CCCCCOC(=O)Nc1nc(=O)n([C@@H]2O[C@H](C)[C@@H](O)[C@H]2O)cc1F [Capecitabine (Xeloda), Capecitabine] |  | 240.5 ± 7.0 | 
42 | O=c1[nH]cc(F)c(=O)[nH]1 [Carac (Fluorouracil-Topical, Tolak), Fluorouracil] |  | 84.5 ± 5.0 | 
43 | CC(C)C[C@H](NC(=O)[C@H](CCc1ccccc1)NC(=O)CN1CCOCC1)C(=O)N[C@@H](Cc1ccccc1)C(=O)N[C@@H](CC(C)C)C(=O)[C@@]1(C)CO1 [Carfilzomib (Kyprolis), Carfilzomib] |  | 619.5 ± 3.0 | 
44 | CC[C@H](C)C[C@H](C)CCCCCCCCC(=O)N[C@H]1C[C@@H](O)[C@@H](NCCN)NC(=O)[C@@H]2[C@@H](O)CCN2C(=O)[C@H]([C@H](O)CCN)NC(=O)[C@H]([C@H](O)[C@@H](O)c2ccc(O)cc2)NC(=O)[C@@H]2C[C@@H](O)CN2C(=O)[C@H]([C@@H](C)O)NC1=O [Caspofungin] |  |  | Molar volume (Table 3, antifungal drugs and other molecules): 803.3 cm^3
